{
  "source": "patent US20220267380A1",
  "about": "“Glycopeptides Increasing Lipid Synthesis” (TFCHEM, priority 2019, published 2022)",
  "tested_on": "normal human dermal fibroblasts (NHDF)",
  "assay": "Gene expression in NHDF, full transcriptome analysis with Affymetrix U219 microarray",
  "format": "cell-based",
  "conditions": "NHDF, 7.5 mg/ml, 24 h",
  "experimental": "In the present study, the transcriptional effects (modulation of gene expression) of compounds 1, 2, 3 and 4 were evaluated on normal human dermal fibroblasts (NHDF) under basal conditions.\nMore specifically, the comparative analysis of the different transcriptomic profiles was performed using an Affymetrix GeneAtlas platform and the human “full transcriptome” U219 chip, which includes 36,000 transcripts and variants.\nFibroblasts were seeded in 24-well plates and cultured in culture medium for 24 hours. The medium was then replaced by assay medium and cells were incubated for further 24 hours. The medium was replaced by assay medium containing or not (control) the test compounds at different concentrations and the cells were preincubated for 24 hours. All experimental conditions were performed in triplicate. At the end of incubation, the culture supernatants were removed and the cells were washed in a phosphate buffered saline (PBS) solution and immediately frozen at −80° C.\nBefore RNA extraction, the replicates were pooled. Total RNA was extracted from each sample using TriPure Isolation Reagent® according to the supplier's instructions. The amount and quality of total RNA were evaluated for all samples using capillary electrophoresis (Bioanalyzer 2100, Agilent technologies). From each RNA, a labeled and amplified anti-sens RNA (aRNA) was obtained using GeneChip 3′IVT PLUS Kit (Affymetrix). For each labeled and amplified aRNA sample the profiles were evaluated before and after fragmentation using capillary electrophoresis (Bioanalyzer 2100, Agilent technologies). Hybridization of fragmented aRNA onto Affymetrix® U219 chip (36,000 transcripts and variants) was performed in the GeneAtlas™ fluidics Affymetrix® hybridization station for 20 hours at 45° C. U219 chip was analyzed using the GeneAtlas™ Imaging station (Affymetrix®—resolution 2 μm) to generate fluorescence intensity data.\nExpression Console and Quality controls: data were normalized with the Expression Console (Affymetrix®) software using RMA algorithm. Then a quality control of the labeling and the hybridization was performed. Hybridization and labeling steps successfully passed the quality controls for these experiments.\nData reduction, Excel file description: once normalized with Expression Console, data were transferred into a Microsoft Excel® file in order to go further into data reduction.\nCalculation and tools were added in order to rank and sort data, and finally to support data interpretation. Detection thresholds in terms of fold change were defined and applied on normalized data.\nResults are considered and presented or commented per gene (and not probe). A probe set is a collection of probes designed to interrogate a given sequence of a gene. For data interpretation, the most important relative expression value obtained with one probe is considered to be representative of the corresponding gene. The file contains the following data: • Relative expression (RE) for each sample, • Fold change calculation, • Gene information.",
  "key": {"[1]": {"conditions": "relative expression adjusted to detection limit (<20)"}},
  "data": [
    {"molecule": "C[C@H](NC(=O)[C@@H](N)CCCCNCC(F)(F)[C@]1(O)O[C@H](CO)[C@H](O)[C@H](O)[C@H]1O)C(=O)O", "note": "[Compound 2]", "values": [
      {"measurement": "Fold change, APOD", "setting": "vs control", "result": 0.50},
      {"measurement": "Fold change, DHCR24", "setting": "vs control", "result": 2.13},
      {"measurement": "Fold change, HACD1", "setting": "vs control", "result": 2.01},
      {"measurement": "Fold change, NEU1", "setting": "vs control", "result": 2.18},
      {"measurement": "Fold change, SERINC2", "setting": "vs control", "result": 2.09},
      {"measurement": "Fold change, TM7SF2", "setting": "vs control", "result": 2.18},
      {"measurement": "Fold change, TXNRD1", "setting": "vs control", "result": 2.07},
      {"measurement": "Fold change, SCD", "setting": "vs control, Affymetrix probe set 11715561_s_at", "result": 2.01},
      {"measurement": "Fold change, SCD", "setting": "vs control, Affymetrix probe set 11715562_x_at", "result": 2.02},
      {"measurement": "Fold change, SCD", "setting": "vs control, Affymetrix probe set 11715563_s_at", "result": 2.07},
      {"measurement": "Fold change, FADS1", "setting": "vs control, Affymetrix probe set 11752670_a_at", "result": 2.04},
      {"measurement": "Fold change, FADS1", "setting": "vs control, Affymetrix probe set 11755251_x_at", "result": 2.19},
      {"measurement": "REadj2, APOD", "setting": "[1]", "result": 174.26},
      {"measurement": "REadj2, DHCR24", "setting": "[1]", "result": 178.12},
      {"measurement": "REadj2, HACD1", "setting": "[1]", "result": 516.24},
      {"measurement": "REadj2, NEU1", "setting": "[1]", "result": 495.48},
      {"measurement": "REadj2, SERINC2", "setting": "[1]", "result": 245.33},
      {"measurement": "REadj2, TM7SF2", "setting": "[1]", "result": 88.53},
      {"measurement": "REadj2, TXNRD1", "setting": "[1]", "result": 1384.05},
      {"measurement": "REadj2, SCD", "setting": "relative expression adjusted to detection limit (<20), Affymetrix probe set 11715561_s_at", "result": 277.57},
      {"measurement": "REadj2, SCD", "setting": "relative expression adjusted to detection limit (<20), Affymetrix probe set 11715562_x_at", "result": 302.56},
      {"measurement": "REadj2, SCD", "setting": "relative expression adjusted to detection limit (<20), Affymetrix probe set 11715563_s_at", "result": 241.64},
      {"measurement": "REadj2, FADS1", "setting": "relative expression adjusted to detection limit (<20), Affymetrix probe set 11752670_a_at", "result": 1734.26},
      {"measurement": "REadj2, FADS1", "setting": "relative expression adjusted to detection limit (<20), Affymetrix probe set 11755251_x_at", "result": 1114.87}
    ]}
  ]
}
